# Source: PubChem BioAssay (NCI)
#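 These data come from cells grown in 96-well plates and exposed to compound for 48 hours at five concentrations. TGI: total growth inhibition.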
# Columns and labels:
# Experiment in all cases: NCI anticancer screen, dose series, 48 h
# [1] = system: U251 CNS
# [2] = system: SN12C renal
# [3] = system: UACC-257 melanoma
# [4] = system: 786-0 renal
# [5] = system: KM12 colon
# [6] = system: NCI-H460 lung
# [7] = system: OVCAR-5 ovarian
# [8] = system: MALME-3M melanoma
# [9] = system: HL-60(TB) leukemia
# [10] = system: NCI-H226 lung
# [11] = system: SK-MEL-28 melanoma
# [12] = system: OVCAR-8 ovarian
# [13] = system: MOLT-4 leukemia
# [14] = system: SR leukemia
# [15] = system: NCI/ADR-RES ovarian
# [16] = system: BT-549 breast
SMILES,TGI [1],TGI [2],TGI [3],TGI [4],TGI [5],TGI [6],TGI [7],TGI [8],TGI [9],TGI [10],TGI [11],TGI [12],TGI [13],TGI [14],TGI [15],TGI [16]
CC1(O)CC2C(CC1SC1CC3C(CC1(C)O)C3(C)C)C2(C)C (stereo not given),> 100 µM,> 100 µM,> 100 µM,> 100 µM,> 100 µM,> 100 µM,> 100 µM,> 100 µM,58.5 µM,> 100 µM,> 100 µM,> 100 µM,> 100 µM,–,–,–
CCOC(=O)C(C)NC(=O)NC12CC3CC(CC(F)(C3)C1)C2 (stereo not given),> 100 µM,–,> 100 µM,> 100 µM,> 100 µM,> 100 µM,> 100 µM,> 100 µM,> 100 µM,–,> 100 µM,> 100 µM,> 100 µM,–,–,–
COc1cc([C@@H]2c3cc4c(cc3[C@@H](NCc3ccccc3F)C3COC(=O)[C@@H]32)OCO4)cc(OC)c1O (stereo not given in full),9.02 µM,8.08 µM,37.2 µM,13.8 µM,18 µM,13.2 µM,78.4 µM,28.3 µM,4.26 µM,7.52 µM,46.6 µM,> 100 µM,7.4 µM,–,–,–
Cc1cc(Cl)ccc1NC(=O)/C(=N\NC(C)(C)C)C(C#N)c1nc(-c2ccc([N+](=O)[O-])cc2)cs1 (stereo not given),> 100 µM,> 100 µM,> 100 µM,> 100 µM,> 100 µM,> 100 µM,> 100 µM,> 100 µM,> 100 µM,> 100 µM,> 100 µM,> 100 µM,> 100 µM,> 100 µM,–,–
C/C(=N\O)c1ccc(OCc2cc(C(F)(F)F)cc(C(F)(F)F)c2)cc1,> 100 µM,> 100 µM,> 100 µM,> 100 µM,43.9 µM,69.1 µM,> 100 µM,> 100 µM,25.5 µM,> 100 µM,> 100 µM,> 100 µM,68.5 µM,> 100 µM,> 100 µM,–
Brc1ccc(-c2[nH]c3ccccc3c2/C=N\Nc2ccc(-c3nc4ccccc4[nH]3)cc2)cc1,> 42.1 µM,> 100 µM,> 100 µM,> 42 µM,> 100 µM,> 51.6 µM,> 67.1 µM,24 µM,> 100 µM,–,–,> 58.5 µM,22.1 µM,–,> 100 µM,> 100 µM
O=C1/C(=C/c2ccccc2Cl)COc2ccc(Br)cc21,> 100 µM,–,> 100 µM,> 100 µM,> 100 µM,> 100 µM,> 100 µM,> 100 µM,> 100 µM,–,> 100 µM,> 100 µM,> 100 µM,–,–,–
C/C(O)=C(/C=N/C(=S)Nc1ccccc1)C(=O)Nc1ccccc1C,> 100 µM,> 100 µM,> 100 µM,> 100 µM,> 100 µM,> 100 µM,> 100 µM,> 100 µM,> 100 µM,> 100 µM,> 100 µM,> 100 µM,> 100 µM,> 100 µM,> 100 µM,–
COc1ccc(OC2(c3cc(OC)ccc3OC)OC(=O)c3ccccc32)cc1 (stereo not given),> 100 µM,> 100 µM,> 100 µM,> 100 µM,> 100 µM,> 100 µM,> 100 µM,> 100 µM,> 100 µM,> 100 µM,> 100 µM,> 100 µM,> 100 µM,> 100 µM,–,–
CC(=O)NC(CCCCNCc1ccccc1)C(=O)NCc1ccccc1 (stereo not given),> 100 µM,> 100 µM,> 100 µM,> 100 µM,> 100 µM,> 100 µM,> 100 µM,> 100 µM,–,> 100 µM,> 100 µM,> 100 µM,> 100 µM,–,–,–
CC1(C)CN(CC(=O)O)CC(Cc2ccc(OCC(=O)O)cc2)N(CC(=O)O)CC(C)(C)SS1 (stereo not given),> 100 µM,> 100 µM,> 100 µM,> 100 µM,> 100 µM,> 100 µM,> 100 µM,> 100 µM,–,> 100 µM,> 100 µM,> 100 µM,> 100 µM,–,> 100 µM,> 100 µM
CC(=O)C1C(=O)C(=O)N(c2ccc([N+](=O)[O-])cc2[N+](=O)[O-])C1=O (stereo not given),> 100 µM,> 100 µM,> 100 µM,> 100 µM,> 100 µM,> 100 µM,> 100 µM,–,> 100 µM,> 100 µM,> 100 µM,> 100 µM,> 100 µM,–,> 100 µM,> 100 µM
O=C1C(Cl)C(c2ccccc2Cl)N1n1cnc2ccccc2c1=O (stereo not given),> 100 µM,> 100 µM,> 100 µM,> 100 µM,> 100 µM,> 100 µM,> 100 µM,> 100 µM,57.4 µM,91.4 µM,> 100 µM,> 100 µM,> 100 µM,> 100 µM,–,–
CCOc1ccc(N(CC(=O)N2CC(=O)Nc3cc(C)c(C)cc32)C(C)=O)cc1,> 100 µM,> 100 µM,> 100 µM,> 100 µM,> 100 µM,> 100 µM,> 100 µM,> 100 µM,> 100 µM,> 100 µM,> 100 µM,> 100 µM,> 100 µM,> 100 µM,–,–
N#C/C(c1nc2ccccc2[nH]1)=c1\s/c(=C/c2ccccc2)c(=O)n1-c1ccccc1,> 100 µM,> 100 µM,> 100 µM,> 100 µM,> 100 µM,> 100 µM,> 100 µM,> 100 µM,> 100 µM,> 100 µM,> 100 µM,> 100 µM,> 100 µM,> 100 µM,–,–
CCc1cccc(C(C)C)c1NC(=O)/C(=N\NC(N)=O)C(C(=O)OC)c1cnc2ccccc2n1 (stereo not given),> 100 µM,> 100 µM,94.4 µM,> 100 µM,> 100 µM,80.7 µM,> 100 µM,76.4 µM,79.6 µM,> 100 µM,> 100 µM,> 100 µM,> 100 µM,> 100 µM,–,–
